In the supplement of paper PMC10307832:

How the values were obtained:
Assay in all cases: relative viability (nuclei count vs DMSO), 5 days (fraction); higher = more cells survive
[1] = compound: NC1(c2ccc(-c3nc4ccn5c(=O)[nH]nc5c4cc3-c3ccccc3)cc2)CCC1 [MK-2206] + Cc1nc(Nc2ncc(C(=O)Nc3c(C)cccc3Cl)s2)cc(N2CCN(CCO)CC2)n1 [Dasatinib] (partner 0.075 µM)
In short: (§1)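 Relative viability divides the nuclei count in treated wells by that in vehicle wells. Lung cancer cell lines were seeded in 1536-well plates, dosed by pin tool the next day, and fixed and stained after 5 days in one step with final 0.05% Triton X-100, 1% formaldehyde and 1 ug/ml Hoechst. Dosing was a single drug or a fixed anchor-drug dose plus five library-drug doses (not always all listed) in √10 steps, and values are medians of duplicate plates imaged at 4×.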

[2] = compound: CS(=O)(=O)N1CCN(Cc2cc3nc(-c4cccc5[nH]ncc45)nc(N4CCOCC4)c3s2)CC1 [Pictilisib] + COc1cccc2cc(-c3nc([C@H]4CC[C@H](C(=O)O)CC4)n4ncnc(N)c34)[nH]c12 [OSI-027] (partner 0.5 µM)
In short: as §1

[3] = compound: NC1(c2ccc(-c3nc4ccn5c(=O)[nH]nc5c4cc3-c3ccccc3)cc2)CCC1 [MK-2206] + COc1cc2c(Oc3ccc(NC(=O)C4(C(=O)Nc5ccc(F)cc5)CC4)cc3F)ccnc2cc1OCCCN1CCOCC1 [Foretinib] (partner 0.25 µM)
In short: as §1

[4] = compound: NC1(c2ccc(-c3nc4ccn5c(=O)[nH]nc5c4cc3-c3ccccc3)cc2)CCC1 [MK-2206] + Cc1nc(NC(=O)N2CCC[C@H]2C(N)=O)sc1-c1ccnc(C(C)(C)C(F)(F)F)c1 [Alpelisib] (partner 2 µM)
In short: as §1

Cell Line	relative viability ([1]; first compound 0.01 µM)	relative viability ([1]; first compound 0.03162 µM)	relative viability ([1]; first compound 0.3162 µM)	relative viability ([1]; first compound 1 µM)	relative viability ([2]; first compound 0.02 µM)	relative viability ([2]; first compound 0.06325 µM)	relative viability ([2]; first compound 0.6325 µM)	relative viability ([2]; first compound 2 µM)	relative viability ([3]; first compound 0.01 µM)	relative viability ([3]; first compound 0.03162 µM)	relative viability ([3]; first compound 0.3162 µM)	relative viability ([3]; first compound 1 µM)	relative viability ([4]; first compound 0.01 µM)	relative viability ([4]; first compound 0.03162 µM)	relative viability ([4]; first compound 0.3162 µM)	relative viability ([4]; first compound 1 µM)
NCI-H661	0.898	0.907	0.856	0.949	0.687	0.682	0.499	0.261	1.01	1.09	1.01	0.986	0.745	1.07	0.688	0.473
PC-3 [JPC-3]	0.968	1.01	1.06	0.934	0.591	0.718	0.621	0.433	1.05	1.12	0.99	1.04	0.985	1.01	1.02	1.04
HCC-366	0.696	0.68	0.434	0.222	0.955	0.822	0.432	0.104	0.924	1.03	0.869	0.975	0.526	0.48	0.244	0.212
NCI-H1651	0.386	0.448	0.478	0.405	0.643	0.584	0.565	0.291	0.724	0.658	0.834	0.733	0.921	0.906	0.938	0.898
NCI-H1355	0.734	0.7	0.701	0.432	0.412	0.358	0.232	0.237	0.94	1.02	0.952	0.952	0.886	0.813	0.789	0.783
LC-2-ad	0.581	0.579	0.505	0.2	0.881	0.781	0.475	0.396	0.864	0.952	0.846	0.889	0.888	0.847	0.802	0.793
NCI-H1944	0.243	0.227	0.198	0.182	0.403	0.345	0.249	0.179	0.889	1	0.887	0.829	0.912	0.834	0.833	0.752
HCC-827	0.476	0.272	0.258	0.362	0.824	0.696	0.338	0.192	1.13	1.05	0.945	0.984	1.07	1.05	0.821	0.816
COR-L23	0.452	0.527	0.494	0.536	0.767	0.809	0.732	0.372	1.1	0.959	1.12	0.948	0.82	0.904	0.681	0.686
NCI-H3122	0.801	0.789	0.84	0.118	0.909	0.786	0.435	0.172	0.998	0.896	1.05	0.944	0.737	0.659	0.677	0.636
NCI-H2170	0.611	0.504	0.625	0.559	0.776	0.711	0.642	0.418	1.06	1.04	1.02	1.02	0.82	0.835	0.755	0.776
NCI-H1793	0.474	0.514	0.344	0.317	0.255	0.236	0.185	0.149	0.786	0.779	0.834	0.578	0.721	0.816	0.634	0.727
BEN	0.265	0.332	0.321	0.362	0.309	0.293	0.286	0.273	0.687	0.76	0.709	0.606	0.998	1.11	1.08	1.1
NCI-H647	0.17	0.188	0.154	0.156	0.598	0.709	0.403	0.182	1.1	1.12	1.06	1.2	1.39	1.24	1.07	0.851
PC-14	0.289	0.346	0.27	0.294	1.02	1	0.557	0.266	0.903	0.993	0.985	0.994	0.852	0.98	0.74	0.881
HCC-78	0.511		0.373	0.227	0.334	0.376	0.285	0.275	0.557		0.496	0.459	0.372	0.336	0.256	0.21
NCI-H1666	0.751	0.838	0.818	0.744	0.877	0.858	0.636	0.477	1	0.985	1.02	0.91	0.957	0.89	0.729	0.735
COR-L 105	0.411	0.409	0.305	0.289	0.735	0.629	0.472	0.28	1.08	0.856	0.984	1.06	0.98	0.951	0.825	0.677
LU99A	0.524	0.733	0.48	0.498	0.286	0.262	0.263	0.214	0.805	0.774	0.847	0.816	0.569	0.559	0.396	0.472
NCI-H596	0.669	0.662	0.577	0.505	0.719	0.729	0.353	0.296	1.02	0.921	0.677	0.77	0.518	0.623	0.401	0.473
